Reference: ChEMBL document CHEMBL3769324, “Acetophenone derivatives: novel and potent small molecule inhibitors of monoamine oxidase B” (Medchemcomm, 2015)

Experiments:
[1] = target: T1, Amine oxidase [flavin-containing] A (Homo sapiens, UniProt P21397); assay: Inhibition of human MAOA using p-tyramine as substrate after 15 mins by Amplex Red MAO assay
T1 sequence (P21397 whole entry): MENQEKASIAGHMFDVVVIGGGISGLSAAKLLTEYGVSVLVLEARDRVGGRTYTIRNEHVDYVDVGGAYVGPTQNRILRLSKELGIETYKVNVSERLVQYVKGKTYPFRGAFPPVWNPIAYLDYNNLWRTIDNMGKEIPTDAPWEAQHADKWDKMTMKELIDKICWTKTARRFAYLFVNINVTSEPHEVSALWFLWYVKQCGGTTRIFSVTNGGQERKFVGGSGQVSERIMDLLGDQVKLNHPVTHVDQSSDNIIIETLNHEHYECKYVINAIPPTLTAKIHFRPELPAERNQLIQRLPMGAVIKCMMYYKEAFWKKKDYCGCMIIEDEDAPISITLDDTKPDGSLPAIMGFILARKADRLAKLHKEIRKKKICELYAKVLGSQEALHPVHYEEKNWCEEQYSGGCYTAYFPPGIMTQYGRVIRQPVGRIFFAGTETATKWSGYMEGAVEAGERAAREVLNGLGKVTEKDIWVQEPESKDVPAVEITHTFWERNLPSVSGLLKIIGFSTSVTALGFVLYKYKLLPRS

[2] = target: T2, Amine oxidase [flavin-containing] B (Homo sapiens, UniProt P27338); assay: Inhibition of human MAOB using p-tyramine as substrate after 15 mins by Amplex Red MAO assay
T2 sequence (P27338 whole entry): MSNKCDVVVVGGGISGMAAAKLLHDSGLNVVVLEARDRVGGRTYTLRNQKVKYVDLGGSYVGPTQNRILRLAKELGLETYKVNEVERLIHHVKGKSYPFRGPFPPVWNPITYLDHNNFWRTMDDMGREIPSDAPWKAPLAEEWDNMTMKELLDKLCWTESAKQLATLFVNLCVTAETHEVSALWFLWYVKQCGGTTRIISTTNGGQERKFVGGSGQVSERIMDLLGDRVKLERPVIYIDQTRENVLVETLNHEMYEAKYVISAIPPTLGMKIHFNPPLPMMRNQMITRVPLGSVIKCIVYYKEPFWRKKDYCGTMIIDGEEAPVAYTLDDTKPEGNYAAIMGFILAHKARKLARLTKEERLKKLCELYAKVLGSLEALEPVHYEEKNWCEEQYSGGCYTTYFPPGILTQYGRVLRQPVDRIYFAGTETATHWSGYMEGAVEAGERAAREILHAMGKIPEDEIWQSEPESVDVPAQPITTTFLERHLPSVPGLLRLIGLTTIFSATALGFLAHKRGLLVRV

Homo sapiens = organism: Homo sapiens; assay: Selectivity index, ratio of IC50 for human MAOA to IC50 for human MAOB
[3] = target: T1, Amine oxidase [flavin-containing] A; assay: Inhibition of human MAOA using p-tyramine as substrate at 100 uM after 15 mins by Amplex Red MAO assay; conditions: 0.25 h
[4] = target: T2, Amine oxidase [flavin-containing] B; assay: Competitive inhibition of human MAOB using 50 to 500 uM of p-tyramine as substrate up to 20 nM by Lineweaver-Burk plot analysis
SH-SY5Y = assay: Neurotoxicity against human SH-SY5Y cells assessed as cell viability at 3 to 50 uM after 48 hrs by MTT assay; assay type: toxicity, cell-based
[5] = target: T1, Amine oxidase [flavin-containing] A; assay: Inhibition of MAOA (unknown origin)
[6] = target: T2, Amine oxidase [flavin-containing] B; assay: Inhibition of MAOB (unknown origin)
[7] = target: T2, Amine oxidase [flavin-containing] B; assay: Reversible inhibition of human MAOB using p-tyramine as substrate preincubated for 60 mins

Row | IC50 [2] [µM] | Ratio IC50 (Homo sapiens) | inhibition at 100 µM [3] [%] | Structure (SMILES) | further results
1 | 0.0342 | 1370 |  | CC(=O)c1cccc(OCc2cccc(Cl)c2)c1 | IC50 [1]: 46.8 µM
2 | 0.0831 | > 1200 | 48.4 | CC(=O)c1ccc(OCc2cccc(F)c2)cc1 | 
3 | 0.0963 | > 1040 | 49.1 | CC(=O)c1cccc(OCc2cccc(Br)c2)c1 | 
4 | 0.0632 | 1480 |  | CC(=O)c1ccc(OCc2ccc(Cl)cc2)cc1 | IC50 [1]: 93.6 µM
5 | 1.95 | > 51.3 | 31 | CC(=O)c1cccc(OCc2ccccc2)c1 | 
6 | 0.0754 | 1180 |  | CC(=O)c1cccc(OCc2ccc([N+](=O)[O-])cc2)c1 | IC50 [1]: 88.3 µM
7 | 0.0432 | > 2320 | 27.2 | CC(=O)c1cccc(OCc2ccc(C(F)(F)F)cc2)c1 | 
8 | 0.214 | > 467 | 48.3 | CC(=O)c1ccc(OCc2cccc(Br)c2)cc1 | 
9 | 0.311 | 288 |  | CC(=O)c1ccc(OCc2ccccc2Cl)cc1 | IC50 [1]: 89.6 µM
10 | 0.14 | > 714 | 23 | CC(=O)c1cccc(OCc2ccc(C)cc2)c1 | 
11 | 0.104 | 493 |  | CC(=O)c1ccc(OCc2cccc([N+](=O)[O-])c2)cc1 | IC50 [1]: 51.3 µM
12 | 0.0863 | > 1160 | 32.3 | CC(=O)c1ccc(OCc2cccc(C)c2)cc1 | 
13 | 0.11 | > 909 | 8.19 | CC(=O)c1ccc(OCc2ccccc2)cc1 | 
14 | 0.893 | > 112 | 31.1 | CC(=O)c1cccc(OCc2cccc(C)c2)c1 | 
15 | 0.0212 | > 4720 | 46.7 | CC(=O)c1cccc(OCc2cccc(C(F)(F)F)c2)c1 | inhibition (INH) [7]: Active
16 | 0.0864 | > 1160 | 49.6 | CC(=O)c1cccc(OCc2ccc(F)cc2)c1 | 
17 | 0.114 | > 877 | 17.8 | CC(=O)c1cccc(OCc2cccc([N+](=O)[O-])c2)c1 | 
18 | 0.0582 | > 1720 | 48.9 | CC(=O)c1ccc(OCc2cccc(C(F)(F)F)c2)cc1 | 
19 | 0.193 | > 518 | 31 | CC(=O)c1cccc(OCc2cccc(F)c2)c1 | 

The next lines start with the molecule.

Row | Structure (SMILES) | IC50 [2] [µM] | Ratio IC50 (Homo sapiens) | inhibition at 100 µM [3] [%] | further results
20 | CC(=O)c1ccc(OCc2ccccc2C)cc1 | 0.0771 | > 1300 | 42.9 | 
21 | CC(=O)c1ccc(OCc2ccc(F)cc2)cc1 |  |  | 43.5 | Activity [4]: Active; Activity (SH-SY5Y): Non-toxic
22 | CC(=O)c1ccc(OCc2ccccc2C(F)(F)F)cc1 | 0.183 | 385 |  | IC50 [1]: 70.5 µM
23 | C[C@H](NCc1ccc(OCc2cccc(F)c2)cc1)C(N)=O [SAFINAMIDE] |  |  | 9.74 | 
24 | CC(=O)c1ccc(OCc2ccccc2F)cc1 | 0.0569 | > 1760 | 47.1 | 
25 | CC(=O)c1ccc(OCc2ccc([N+](=O)[O-])cc2)cc1 | 0.0965 | > 1040 | 33.8 | 
26 | CC(=O)c1cccc(OCc2ccc(Cl)cc2)c1 |  |  |  | IC50 [1]: 39.7 µM; Activity [4]: Active; Activity (SH-SY5Y): Non-toxic
27 | O=C1CCc2ccc(OCc3ccc(Br)cc3)cc2N1 |  |  |  | IC50 [5]: 7.98 µM; IC50 [6]: 0.0029 µM
28 | CC(=O)c1ccc(OCc2ccc(C)cc2)cc1 | 0.102 | > 980 | 5.96 | 
29 | O=C1CCCc2cc(OCc3ccc(I)cc3)ccc21 |  |  |  | IC50 [5]: 1.29 µM; IC50 [6]: 0.0045 µM
30 | CC(=O)c1cccc(OCc2ccc(Br)cc2)c1 |  |  |  | IC50 [1]: 48.7 µM
31 | CC(=O)c1ccc(OCc2ccccc2[N+](=O)[O-])cc1 | 0.284 | > 352 | 34 | inhibition (INH) [7]: Active
32 | CC(=O)c1ccc(OCc2ccc(Br)cc2)cc1O |  |  |  | IC50 [5]: 15.8 µM; IC50 [6]: 0.004 µM
33 | CC(=O)c1ccc(OCc2cc(F)c(F)c(F)c2)cc1 | 0.0841 | > 1190 | 44.3 | 
34 | CC(=O)c1ccc(OCc2ccc(Br)cc2)cc1 | 0.0856 | > 1170 | 23.2 | 
35 | CC(=O)c1ccc(OCc2ccc(C(F)(F)F)cc2)cc1 | 0.0778 | > 1280 | 26.4 | 
36 | CC(=O)c1ccc(OCc2ccc(F)c(F)c2)cc1 | 0.0679 | 1150 |  | IC50 [1]: 78.3 µM
37 | CC(=O)c1ccc(OCc2ccc(F)cc2F)cc1 | 0.0273 | > 3660 | 45.7 | 
38 | C#CCNCc1cc2cc(OCc3ccccc3)ccc2[nH]1 |  |  |  | IC50 [5]: 0.79 µM; IC50 [6]: 0.011 µM
39 | CC(=O)c1ccc(OCc2cccc(Cl)c2)cc1 |  |  |  | IC50 [1]: 83.3 µM
